# Results taken from US4201784A, “Substituted 2-[2'-(5"-nitrofuryl-2")vinyl-and 4'-(5"-nitrofuryl-2"-1,3-butadieryl]quinoline-4-carboxylic acid amides and salts thereof” (Institut Organicheskogo Sinteza Akademii Nauk Latviiskoi SSR, priority 1977, dated 1980).
# What was measured:
# Ehrlich ascitic tumor [1] = experiment: Antitumor activity, life prolongation of mice with Ehrlich ascitic tumor; assay type: in vivo
# Description: The experiment was conducted as follows. 10^6 cells of Erlich tumuor were injected in common white mice intraperitoneally, the dose being given per each animal. […] Each dose of the preparation was tested in six mice. The control group included 18 mice. Giniquine solution was prepared by dissolving the substance ex tempore in distilled water or in a buffer. The effect of the preparation is shown on charts 1,2,3.
# sarcoma 37 = experiment: Antitumor activity, life prolongation, sarcoma 37; assay type: in vivo, mice
# Description: (§1) Apart from the tests on Ehrlich ascitic tumor, giniquine was studied on twelve more inoculated tumors. Seven tumors (melanoma B16, sarcoma AK, large intestine carcinoma acatol-1, sarcoma 180, adenocarcinoma 755, Lewis lung carcinoma and sarcoma 37) were inoculated subcutaneously with 50 mg of tumoral cells per mouse. Four tumors (lymphatic leukemies L 5178, L 5178Y, L 1210 and P-388) were inoculated intraperitoneally with 10^6 cells per mouse. One tumor (La, hemocytoblastosis) was inoculated intraperitoneally by injecting 50 mg of cell suspension of spleen and liver of mice suffering La hemocytoblastosis, per mouse. Giniquine was injected intraperitoneally five times for seven days: 1,2,3,4,7 days or 3,4,5,6,7 days after the implantation of tumor. The rate of deceleration of the tumor growth was established 14 days after the ultimate injection of giniquine; life of test animals was recorded for 60 days.
# [2] = tested on: lymphatic leukemia L 5178; experiment: Antitumor activity, life prolongation, lymphatic leukemia L 5178; assay type: in vivo, mice
# Description: as §1
# acatol-1 = experiment: Antitumor activity, large intestine adenocarcinoma acatol-1; assay type: in vivo, mice
# Description: as §1
# sarcoma 180 = experiment: Antitumor activity, sarcoma 180; assay type: in vivo, mice
# Description: as §1
# Jensen sarcoma [3] = conditions: cited from earlier work
# Walker carcinosarcoma [4] = conditions: cited from earlier work
# [5] = in vivo; cited from earlier work
# sarcoma AK = experiment: Antitumor activity, sarcoma AK; assay type: in vivo, mice
# Description: as §1
# melanoma B16 = experiment: Antitumor activity, melanoma B16; assay type: in vivo, mice; conditions: 17 mg/kg
# Description: as §1, with “Giniquine was injected intraperitoneally five times for seven days: 1,2,3,4,7 days or 3,4,5,6,7 days after the implantation of tumor.” left out
# Lewis lung carcinoma = experiment: Antitumor / antimetastatic activity, Lewis lung carcinoma; assay type: in vivo, mice; conditions: daily doses of 6 and 10 mg/kg
# Description: as §1
# Jensen sarcoma [6] = experiment: Growth deceleration / antitumor activity, Jensen sarcoma; assay type: in vivo; conditions: peroral administration
# Description: (§2) An antiblastic effect is caused by products of condensation of aldehydes of the nitrofuran series with (β-hydrazinoethyl)pyridine, 3-hydrazino-4-amino-1,2,4-triazole [Giller S. A., Kalnberga R. Yu., Zidermane A. A. et al. In the book "Methods of Synthesis and Search for Antitumor Preparations" (in Russian). Iss. 2. M. 1967. pp. 75-81; Giller S. A. et al. In the book "Furozolidine". (in Russian). Riga, 1962. pp. 5-18; Duavarte A. Zh., Zidermane A. A., Kravchenko I. M. et al. In the book "Proceedings of the 1st All-Union Conference on Chemotherapy of Malignant Tumors." Riga. 1968. pp. 216-217; Duavarte A. Zh. et al. In the book "Antitumor Compounds of the 5-nitrofuran Series." (in Russian). Riga, 1972. pp. 17-30)] and 5-aminobenzimidazol [Fuska J., Fuskova A., Jurasek A. "Neoplasma (Bratisl.)". 1973. v. 20. pp. 171-179].
# (§3) "J. Pharm. Soc. Japan." 1964, 84(6). pp. 537-543; K. Miura, I. Okada. "Chem. Pharm. Bull." 1965. 13 (15). pp. 525-528].
# Walker carcinosarcoma [7] = experiment: Growth deceleration / antitumor activity, Walker carcinosarcoma; assay type: in vivo; conditions: peroral administration
# Description: as §2, §3
# Pliss lymphosarcoma = experiment: Antitumor activity, Pliss lymphosarcoma; assay type: in vivo; conditions: peroral administration
# Description: as §3
# [8] = in vivo; cited from earlier work; remark: listed apart in the source
# La hemocytoblastosis = experiment: Antitumor activity, La hemocytoblastosis; assay type: in vivo, mice; conditions: 10 mg/kg
# Description: as §1
# adenocarcinoma 755 = experiment: Antitumor activity, adenocarcinoma 755; assay type: in vivo, mice; conditions: daily doses of 10 and 17 mg/kg
# Description: as §1
# Ehrlich ascitic tumor [9] = experiment: Influence of fluorafur on antitumor activity of giniquine, Ehrlich ascitic tumor; assay type: in vivo, mice
# Description: In some experiments the influence of the known preparation fluorofur on the antitumoral activity of giniquine was studied. […] The tests were made on Ehrlich ascitic tumor. The preparations were injected 1,2,3,4 and 7 days after the implantation of tumor. Giniquine was injected intraperitoneally and fluorafur-subcutaneously.
# giniquine was injected intraperitoneally, and fluorafursubcutaneously.
smiles,measurement,setting,value
"CCN(CC)CCCC(C)NC(=O)c1cc(C=Cc2ccc([N+](=O)[O-])o2)nc2ccccc12 (stereo not drawn) [2-[2'-(5""-nitrofuryl-2"")vinylquinoline]-4-carboxylic acid (α-methyl-δ-diethylaminobutyl)amide dibromide]",prolongation of life,"Ehrlich ascitic tumor [1]; single intraperitoneal injection, 28 mg/kg, 7 days after inoculation",85%
"CCN(CC)CCCC(C)NC(=O)c1cc(C=CC=Cc2ccc([N+](=O)[O-])o2)nc2ccccc12 (stereo not drawn) [2-[4'-(5""-nitrofuryl-2"")-1,3-butadienyl]quinoline-4-carboxylic acid (α-methyl-δ-diethylaminobutyl)amide diphosphate]",prolongation of life,Ehrlich ascitic tumor [1]; doses of 3.6-10 mg/kg,60 to 160%
same,prolongation of life,"sarcoma 37; daily dose of 17 mg/kg, intraperitoneal",up to 120%
same,antiblastic activity / sensitivity (in words),[2]; lymphatic leukemia L 5178,a certain sensitivity
same,antitumor effect / sensitivity (in words),acatol-1; acatol-1,a certain sensitivity
same,antitumor effect / sensitivity (in words),sarcoma 180; sarcoma 180,a certain sensitivity
O=Cc1ccc([N+](=O)[O-])o1 [5-nitrofurfural],activity compared with 5-nitrofuran,Jensen sarcoma [3],about the same activity
same,activity compared with 5-nitrofuran,Walker carcinosarcoma [4],about the same activity
same,acute toxicity compared with 5-nitrofuran,[5],a higher acute toxicity
"O=[N+]([O-])c1ccco1 [Example 5-nitrofuran, 5-nitrofuran]",deceleration of growth,Jensen sarcoma [3],39-51%
same,deceleration of growth,Walker carcinosarcoma [4],39-51%
"O=P1(N(CCCl)CCCl)NCCCO1 (stereo not shown) [cyclophosphane, reference compound]",increase in mice life,Ehrlich ascitic tumor [1]; Ehrlich ascitic tumor,0%
"CCN(CC)CCCC(C)NC(=O)c1cc(C=Cc2ccc([N+](=O)[O-])o2)nc2ccccc12 (stereo not drawn) [2-[2'-(5""-nitrofuryl-2"")vinyl]quinoline-4-carboxylic acid (α-methyl-δ-diethylaminobutyl)amide]",prolongation of life,"Ehrlich ascitic tumor [1]; three injections, 10 and 17 mg/kg",70 to 130%
same,prolongation of life,[2]; 6 to 28 mg/kg,30 to 140%
same,prolongation of life,sarcoma AK; sarcoma AK,up to 20%
same,prolongation of life,melanoma B16,up to 25%
same,prolongation of life,sarcoma 180; sarcoma 180,up to 20%
same,prolongation of life,Lewis lung carcinoma,30%
"NC(=O)c1cc(C=Cc2ccc([N+](=O)[O-])o2)nc2ccccc12 [2-[2'-(5""-nitrofuryl-2"")vinyl]quinoline-4-carboxylic acid amide]",antitumor activity,Jensen sarcoma [6],not found any antitumor activity
same,antitumor activity,Walker carcinosarcoma [7],not found any antitumor activity
same,antitumor activity,Pliss lymphosarcoma,not found any antitumor activity
same,antitumoral activity,[8],a very narrow range of antitumoral activity
"O=C(NCCCO)c1cc(C=CC=Cc2ccc([N+](=O)[O-])o2)nc2ccccc12 [[4'-(5""-nitrofuryl-2"")-1,3-butadienyl]quinoline-4-carboxylic acid (γ-hydroxypropyl)amide]",prolongation of life,Ehrlich ascitic tumor [1]; 17 mg/kg,up to 80%
same,prolongation of life,[2]; 1 mg/kg,up to 40%
same,prolongation of life,acatol-1; 10 mg/kg,about 20%
same,prolongation of life,La hemocytoblastosis,about 20%
"CCN(CC)CCCC(C)NC(=O)c1cc(C=Cc2ccc([N+](=O)[O-])o2)nc2ccccc12 (stereo not drawn) [2-[2'-(5""-nitrofuryl-2"")vinyl]quinoline-4-carboxylic acid (α-methyl-δ-diethylaminobutyl)amide diphosphate]",prolongation of life,"Ehrlich ascitic tumor [1]; 3-5 intraperitoneal injections, daily doses 10 to 28 mg/kg",140 to 180%
same,prolongation of life,[2]; lymphatic leukemia,up to 130%
same,prolongation of life,sarcoma 180; daily doses of 10 and 17 mg/kg,up to 20%
same,prolongation of life,adenocarcinoma 755,up to 20%
"O=C(NCCCO)c1cc(C=Cc2ccc([N+](=O)[O-])o2)nc2ccccc12 [2-[2'-(5""-nitrofuryl-2"")vinyl]quinoline-4-carboxylic acid (γ-hydroxypropyl)amide]",prolongation of life,"Ehrlich ascitic tumor [1]; 7.5 mg/kg to 12.5 mg/kg, five injections",up to 120%
same,prolongation of life,sarcoma 37; 12.5 mg/kg,90%
same,prolongation of life,[2]; lymphatic leukemia L 5178,up to 40%
same,prolongation of life,sarcoma AK; 2.8 mg/kg,up to 20%
"O=c1[nH]c(=O)n(C2CCCO2)cc1F (stereo not shown) [fluorafur, reference compound]",Life prolongation,"Ehrlich ascitic tumor [9]; Test No. 1, fluorafur 39.0 mg/kg daily",35%
same,Life prolongation,"Ehrlich ascitic tumor [9]; Test No. 1, fluorafur 65.0 mg/kg daily",37%
same,Life prolongation,"Ehrlich ascitic tumor [9]; Test No. 1, fluorafur 108.0 mg/kg daily",40%
same,Life prolongation,"Ehrlich ascitic tumor [9]; Test No. 1, fluorafur 180.0 mg/kg daily",52%
same,Life prolongation,"Ehrlich ascitic tumor [9]; Test No. 2, fluorafur 39.0 mg/kg daily",18%
same,Life prolongation,"Ehrlich ascitic tumor [9]; Test No. 2, fluorafur 65.0 mg/kg daily",-5%
same,Life prolongation,"Ehrlich ascitic tumor [9]; Test No. 2, fluorafur 108.0 mg/kg daily",-17%
same,Life prolongation,"Ehrlich ascitic tumor [9]; Test No. 2, fluorafur 180.0 mg/kg daily",-33%
"CCN(CC)CCCC(C)NC(=O)c1cc(C=Cc2ccc([N+](=O)[O-])o2)nc2ccccc12 (stereo not drawn) [2-[2'-(5""-nitrofuryl-2"")vinyl]quinoline-4-carboxylic acid (α-methyl-δ-diethylaminobutyl)amide chloride]",prolongation of life,"Ehrlich ascitic tumor [1]; single intraperitoneal injection, 6 mg/kg, 7 days after inoculation",85%
